US7943184B2, “Process for preparing an extract from ivy leaves” (Engelhard Arzneimittel GmbH & Co. KG, priority 2003, dated 2011)

Key:
[1] = Absorption study by means of the biopharmaceutics classification system (BCS); assay type: in vitro ADME
Procedure: It was possible to show in an absorption study by means of the biopharmaceutics classification system (BCS) that α-hederin is to be attributed with a moderate absorption (10-90%). […] Absorption studies were carried out on rats for this purpose.

[2] = Absorption studies on rats: α-hederin plasma concentration after i.v. or oral administration of ivy leaf extracts; assay type: in vivo; settings: all samples after i.v. or p.o. administration of extract A or B
Excerpt: The influence of administration of two different extracts on the plasma concentration of α-hederin was subsequently investigated. The change in the plasma concentration of α-hederin with a single administration compared with multiple administration of the extract and with different blood sampling times after administration was also investigated, as was the α-hederin absorption rate. Two extracts whose saponin distribution is shown in Table 1 below were selected for this purpose:
For intravenous administration, the required amount of extract was dissolved in 11% (m/m) ethanol, filtered and injected. It was aimed to administer a volume of 2 ml of extract solution (dose in each case [mg/kg of bodyweight]: 25). A blood sample was taken from the animals 5 minutes after the administration. About 2 ml of whole blood with added EDTA for anticoagulation were required for each sample.
Suspensions of the extracts in glycerol were prepared for oral administration. The animals were gavaged with about 2 ml of these suspensions (dose in each case [mg/kg of bodyweight]: 1000 and 166.66). 2 ml of blood were taken from each of the animals 1 and 3 hours after the last administration in each case.
The total saponin content takes account of the molar masses of the two constituents and is based on α-hederin. The total saponin content in extract A in this case was 9.8%, based on α-hederin. […]

smooth muscles = test: Spasmolytic activity / relaxation of smooth muscles; settings: via binding to β-adrenergic receptors; recent studies by the applicant

Compound	permeation through the membranes ([1]; same conditions as BCS absorption study)	Hederacoside C in plasma samples [2]	absorption (BCS) ([1]; biopharmaceutics classification system, moderate absorption)	relaxation of smooth muscles (smooth muscles)
C[C@@H]1O[C@@H](O[C@H]2[C@H](O[C@H]3CC[C@@]4(C)[C@@H](CC[C@]5(C)[C@@H]4CC=C4[C@@H]6CC(C)(C)CC[C@]6(C(=O)O[C@@H]6O[C@H](CO[C@@H]7O[C@H](CO)[C@@H](O[C@@H]8O[C@@H](C)[C@H](O)[C@@H](O)[C@H]8O)[C@H](O)[C@H]7O)[C@@H](O)[C@H](O)[C@H]6O)CC[C@]45C)[C@]3(C)CO)OC[C@H](O)[C@@H]2O)[C@H](O)[C@H](O)[C@H]1O [hederacoside C]	did not permeate through the membranes	not detectable	–	–
C[C@@H]1O[C@@H](O[C@H]2[C@H](O[C@H]3CC[C@@]4(C)[C@@H](CC[C@]5(C)[C@@H]4CC=C4[C@@H]6CC(C)(C)CC[C@]6(C(=O)O)CC[C@]45C)[C@]3(C)CO)OC[C@H](O)[C@@H]2O)[C@H](O)[C@H](O)[C@H]1O [α-hederin]	–	–	10-90%	causes relaxation of smooth muscles
